Reference: patent US6802957B2, “Self-referencing enzyme-based microsensor and method of use” (priority 2001, dated 2004)

System: pancreatic HIT cells (β-cell clusters)
Assay type: cell-based, hamster
Experimental: For trypsinization and splitting, trypsin-EDTA solution was added to a culture flask and incubated for 30 s while triturating with a transfer pipette. Serum was added to stop the digestive action of trypsin. Supernatant was removed after centrifugation at 1000 rpm for 2 min. Culture medium was added, and cells plated into glass bottom petri dishes (35 mm diameter, Matek, Ashland, Mass.) for incubation and subsequent observation.
Cell clusters, approximating to spheroids, appeared approximately two weeks after splitting. Their size ranged from 70 μm to 300 μm in diameter, depending on the time in culture.
A glucose microsensor was positioned adjacent to the cluster and self-referenced perpendicularly to the contour of the expected glucose gradient. The glucose sensor was self-referenced at 0.2 Hz between 60 and 80 μm (Δr of 20 μm) from the cluster surface to avoid H2O2 boundary artifacts. Flux measurements were done in HEPES-buffered solution containing 118 mM NaCl, 5.4 mM KCl, 2.4 mM CaCl2, 1.2 mM MgSO4, 1.2 mM KH2PO4, and 5 mM NaHCO3. All measurements were made with 5 mM glucose in the medium. To ensure that the apparent glucose signal was due to the glucose gradient and not the oxygen gradient, oxygen was provided by a ˜10 μm pipette located 10 μm from the cell cluster and approximately 50 μm from the glucose sensor to reverse the biological oxygen gradient. […] In situ calibration of the sensor was performed immediately after the flux measurements. Data were only accepted if sensor drift was less than ±5% over the experimental period, which was typically 30 min. All data were reported as means ±SEM unless otherwise mentioned.
The glucose sensor was self-referenced at 0.2 Hz between 60 and 80 μm (Δr of 20 μm) from the cluster surface. The aliquot of FCCP was dropped on the meniscus of the medium to minimize disturbance of the existing glucose gradient. All measurements were performed with 5 mM glucose in the bath.
Glucose metabolism was further studied with rotenone, an inhibitor of NADH-dependent respiration in mitochondria. […]

| Compound | decrease in the level of glucose consumption (10 μM rotenone, after 10 min, 5 mM glucose in bath, oxygen source present, four clusters) [%] | glucose flux relative to the basal condition | initial increase in glucose flux [%] |
| --- | --- | --- | --- |
| C=C(C)[C@H]1Cc2c(ccc3c2O[C@@H]2COc4cc(OC)c(OC)cc4[C@@H]2C3=O)O1 [Rotenone, rotenone] | 74±5 | – | – |
| trifluoromethoxy carbonylcyanide phenylhydrazine [FCCP] | – | 56±6 % of the basal condition | 93±16 |
